In PMC9218960 (ACS infectious diseases, 2020) one finds IC50 data, which are given here for three compounds.

Molecules are shown by their SMILES. Positions count from the first letter of the chain named.

Holding throughout (format): cell-based
For assay [1], the target named is T1, PfENT1 A351S (Plasmodium falciparum, UniProt Q8IDM6, A351S).
T1 sequence (Q8IDM6 1-422 A351S): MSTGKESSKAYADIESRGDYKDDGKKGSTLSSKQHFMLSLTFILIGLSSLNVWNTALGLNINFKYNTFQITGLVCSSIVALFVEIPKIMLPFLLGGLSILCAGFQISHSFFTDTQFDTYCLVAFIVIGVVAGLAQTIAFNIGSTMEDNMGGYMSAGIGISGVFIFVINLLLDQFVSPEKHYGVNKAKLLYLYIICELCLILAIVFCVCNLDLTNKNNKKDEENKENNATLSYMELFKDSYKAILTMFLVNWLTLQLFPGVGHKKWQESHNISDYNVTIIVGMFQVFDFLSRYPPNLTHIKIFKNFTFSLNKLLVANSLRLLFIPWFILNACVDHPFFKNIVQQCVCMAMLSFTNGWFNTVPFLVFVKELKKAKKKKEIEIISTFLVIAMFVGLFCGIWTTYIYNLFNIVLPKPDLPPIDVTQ
Nature of the assay: [3H]uridine uptake inhibition by purines in PfENT1-SNP-expressing yeast.

Assay [2] concerns the target T2, PfENT1 F36S/V129I/L133F/P417L (Quad) (Plasmodium falciparum, UniProt Q8IDM6, F36S/L133F/P417L/V129I).
T2 sequence (Q8IDM6 1-422 F36S/V129I/L133F/P417L): T1 sequence (Q8IDM6 1-422 A351S) with F36S, V129I, L133F, S351A, P417L
Described as above.

The target in assay [3] is T3, PfENT1 L385I (Plasmodium falciparum, UniProt Q8IDM6, L385I).
T3 sequence (Q8IDM6 1-422 L385I): T1 sequence (Q8IDM6 1-422 A351S) with S351A, L385I
The assay is described as above.

Assay [4] deals with T4, PfENT1 F36S/V129I (Plasmodium falciparum, UniProt Q8IDM6, F36S/V129I).
T4 sequence (Q8IDM6 1-422 F36S/V129I): T1 sequence (Q8IDM6 1-422 A351S) with F36S, V129I, S351A
Described as above.

In assay [5] the target is T5, PfENT1 F36S (Plasmodium falciparum, UniProt Q8IDM6, F36S).
T5 sequence (Q8IDM6 1-422 F36S): T1 sequence (Q8IDM6 1-422 A351S) with F36S, S351A
The description is as above.

Assay [6] has as its target T6, WT PfENT1 (Plasmodium falciparum, UniProt Q8IDM6).
T6 sequence (Q8IDM6 1-422): T1 sequence (Q8IDM6 1-422 A351S) with S351A
Kind of assay: [3H]uridine uptake inhibition by purines in PfENT1-expressing yeast.

The IC50 is the concentration that gives 50% inhibition. The low end stands for inhibition by little substance, the high end for a need for much substance. Consider `Nc1ncnc2nc[nH]c12` [Adenine, adenine], for which the IC50 in assay [1] is 1240 ± 142 µM; in assay [2], 362 ± 56 µM; in assay [3], 185 ± 15 µM; in assay [4] it was 333 ± 32 µM; in assay [5], 292 ± 21 µM; in assay [6], 475 ± 124 µM.

On to `O=c1[nH]cnc2nc[nH]c12` [Hypoxanthine, hypoxanthine], for which the IC50 came out at 576 ± 270 µM in assay [1]; 108 ± 5 µM in assay [2]; 173 ± 46 µM in assay [3]; 107 ± 5 µM in assay [4]; 171 ± 25 µM in assay [5]; 178 ± 44 µM in assay [6].

As for `OC[C@H]1O[C@@H](n2cnc3c(O)ncnc32)[C@H](O)[C@@H]1O` [Inosine, inosine], the IC50 in assay [1] came to 26 ± 9 µM; in assay [2], 12 ± 1 µM; in assay [3], 58 ± 17 µM; in assay [4], 14 ± 2 µM; in assay [5], 24 ± 7 µM; in assay [6], 20 ± 7 µM.
